How the values were obtained:
LnCap = test: Cell Proliferation (anti-cancer), LnCap; type: cell-based, human
Description: (§1) The primary goal of synthesizing de-ethylflavopereirine (compound 13-9-1) was to generate a different compound that still retains the anti-cancer cell activity of flavopereirine (compound 13-7-2). Comparison of the effects of the two compounds on proliferation of a variety of cancer cells confirmed that this goal was achieved. For example, the effect of de-ethylflavopereirine on two human breast cancer cell lines and two human prostate cancer cell lines were analyzed.

[1] = tested on: two human breast cancer cell lines; test: Proliferation of breast cancer cell lines; type: cell-based
Description: as §1

[2] = mouse, in vivo
Description: To estimate the maximum tolerated dose of compounds 13-7-2 and 13-9-1 in mice, both compounds were dissolved in PBS and given to SCID mice by oral gavage.
Compound 13-7-2 was administered at a dose of 100 mg/kg, 150 mg/kg, or 200 mg/kg. Each dose group consisted of three mice.
Compound 13-9-1 was administered at a dose of 100 mg/kg, 150 mg/kg, or 200 mg/kg by oral gavage (three mice per dose group).
In a separate dose finding/toxicity test with compound 13-9-1, three mice received escalating doses of 50 mg/kg/day for 3 days, 100 mg/kg/day for 7 days, 200 mg/kg/day for 7 days, and 300 mg/kg/day for 3 days, given by oral gavage. Mice were monitored closely for toxic signs.

[3] = tested on: MIA PaCa, PANC-1, BxPc, AsPc; test: MTT cell viability, pancreatic cancer cell lines; type: cell-based, human; conditions: 48 hr
Description: (§2) FIG. 8. Dose-response curves for cell viability of human pancreatic cancer cell lines MIA PaCa (squares), PANC-1 (lozenges), BxPc (crosses), and AsPc (triangles) exposed to de-ethylflavopereirine. Cells were cultured in the presence of increasing concentrations of the compound for 48 hr and cell viability was determined by MTT assay. MRC-5 (asterisks) was used as a control.
(§3) De-ethylflavopereirine was tested for its activity against ovarian, pancreatic, brain, and colon cancer cell lines. […] Cytotoxicity is assayed by reducing a yellow tetrazolium dye, 3-(4,5-dimethylthiazol-2-yl)-2,5-diphenyltetrazolium bromide (MTT), to insoluble purple formazan. The MTT assay is a colorimetric assay for determining the number of viable cells.

MRC-5 = test: MTT cell viability, normal control cell line; type: cell-based, human; conditions: MRC-5, 48 hr
Description: FIG. 7. Dose-response curves for cell viability of human ovarian cancer cell lines OVCAR-5 (triangles), SHIN-3 (squares), and OVCAR-8 (lozenges) exposed to de-ethylflavopereirine. Cells were cultured in the presence of increasing concentrations of the compound for 48 hr and cell viability was determined by MTT assay. MRC-5 (crosses), an immortalized, normal human […] cell line, was used as a control.
as §2, §3

[4] = tested on: PANC-1 pancreatic cancer cells; test: Cleavage of Caspase-3, Caspase-8 and PARP; type: cell-based; conditions: 0-20 μM for 48 hours; 20 μM for 0-48 hours
Excerpt: FIG. 12. Cleavage of Caspase-3, Caspase-8, and PARP confirms that de-ethylflavopereirine induces apoptosis in PANC-1 pancreatic cancer cells. Beta-actin was used as a control.
Induction of apoptosis was also shown by detection of Caspase-8, Caspase-3, and PARP cleavage products. The cleaved protein products are identified in FIG. 12 by arrows adjacent to the right panel. The accumulation of these proteolytic fragments is a biochemical signature for apoptotic cell death.

[5] = Plasma concentrations after intravenous or oral administration; type: in vivo, mice
Description: FIG. 15. Plasma concentrations of de-ethylflavopereirine following intravenous or oral administration: intravenous at 20 mg/kg (lozenges) having a peak at approximately 2 hours, oral at 100 mg/kg (squares), or oral at 200 mg/kg (triangles) having a peak at approximately 4 hours.
Oral administration was chosen for the mouse experiments because administration is simplified by avoiding the need for tail vein injections.

PANC-1 cells = test: CD24/CD44/EpCam triple positive cells by flow cytometry; type: cell-based; conditions: 2.5, 5, 10 μM
Description: FIG. 24. De-ethylflavopereirine decreased the percentage of cancer stem cells in a pancreatic cancer cell population (24 hours). The panels show CD44 (PE-Cy7) positive and EpCam (APC) positive cells in the CD24 (PE) gate at concentrations of 0 μM (upper left), 2.5 μM (upper right), 5 μM (lower left), and 10 μM (lower right) de-ethylflavopereirine after 24 hr. “Q1”=CD24^+/CD44^+, “Triple+”=CD24^+/CD44^+/EpCam^+, “Q3”=CD24^+, and “Q4”=CD24^+/EpCam^+.
FIG. 25. De-ethylflavopereirine decreased the percentage of cancer stem cells in a pancreatic cancer cell population (48 hours). The panels show CD44 (PE-Cy7) positive and EpCam (APC) positive cells in the CD24 (PE) gate at concentrations of 0 μM (upper left), 2.5 μM (upper right), 5 μM (lower left), and 10 μM (lower right) de-ethylflavopereirine after 48 hr. “Q1”=CD24^+/CD44^+, “Triple+”=CD24^+/CD44^+/EpCam^+, “Q3”=CD24^+, and “Q4”=CD24^+/EpCam^+.
Cancer stem cells can be identified by specific cell-surface markers. A combination of three markers CD24, CD44, and EpCam is used for detection of pancreatic cancer stem cells. These markers can be labeled by different fluorophores and detected simultaneously by flow cytometry. Triple positive cells (i.e., cells that express all three markers) are regarded as pancreatic cancer stem cells. De-ethylflavopereirine reduced the percentage of pancreatic cancer stem cells in pancreatic cancer cell populations. PANC-1 cells were treated with 2.5 μM, 5.0 μM, and 10 μM concentrations of the compound for 24 hours or 48 hours. Triple positive cells were identified in quadrant Q2 (“Triple+”) of the flow cytometry output.

PANC-1 cancer stem cells = test: Tumor formation of PANC-1 cancer stem cells (FIG. 27); type: in vivo, mice; conditions: 2×10^5 pre-treated PANC-1 cells
Description: FIG. 27. Reduction of tumor formation by de-ethylflavopereirine. Compound 13-9-1 reduced tumor formation of PANC-1 cancer stem cells.
Mice were then treated with de-ethylflavopereirine for 20 days after injection. […] Maximum tumor formation rate reached 80% at day 39, which is a highly significant difference compared to control (P=0.001 by log-rank test).

c1ccc2c(c1)[nH]c1c2cc[n+]2ccccc12 [Compound 13-9-1, 12H-indolo[2,3-a]quinolizin-5-ium]
Growth Inhibition (LnCap): Yes | IC50 (LnCap; Homo sapiens, after any period of treatment, read-out: Minimum Dose (IC50) needed to decrease growth 50% or greater versus control): 5 µM | IC50 compared with flavopereirine [1]: same IC50s | tolerated dose, oral administration ([2]; SCID): ≥ 300 mg/kg | deaths ([2]; SCID, po, 200 mg/kg, 48 hr): One mouse in the 200 mg/kg group died 15 min after the administration of the compound (apparently due to trauma caused by oral gavage) | toxic signs ([2]; po, 50 mg/kg/day): No abnormality was observed | cell viability [3]: dose-dependent decrease in cancer cell viability | toxicity to noncancerous cells compared with cancer cells (MRC-5): significantly less toxic | cleavage of Caspase-3, Caspase-8 and PARP [4]: dose- and time-dependent | time of peak plasma concentration ([5]; intravenous at 20 mg/kg): approximately 2 hours | time of peak plasma concentration ([5]; oral at 200 mg/kg (sentence also lists oral at 100 mg/kg)): approximately 4 hours | CD24+/CD44+/EpCam+ (triple positive) cell population (PANC-1 cells; 24 hr, listed as De-ethylflavopereirine): Reduction | CD24+/CD44+/EpCam+ (triple positive) cell population (PANC-1 cells; 24 hr, listed as de-ethylflavopereirine): reduced the CD24^+/CD44^+/EpCam^+ cell population | CD24+/CD44+/EpCam+ (triple positive) cell population (PANC-1 cells; 48 hr): reduced the CD24^+/CD44^+/EpCam^+ cell population | tumor formation (PANC-1 cancer stem cells; Day 20): 55% | maximum tumor formation rate (PANC-1 cancer stem cells; Day 39): 80%
